In patent US20210115018A1, “PIPERIDINE COMPOUNDS AS COVALENT MENIN INHIBITORS” (THE REGENTS OF THE UNIVERSITY OF MICHIGAN, priority 2018, published 2021):

What was measured:
[1] = molecular target: T1, menin protein (Homo sapiens, UniProt O00255); experiment: Fluorescence polarization (FP) competitive binding assay, menin binding affinity; conditions: FP competition with FAM-MM2 probe 2 nM, menin 4 nM, 30 minutes room temperature
T1 sequence (O00255 1-610): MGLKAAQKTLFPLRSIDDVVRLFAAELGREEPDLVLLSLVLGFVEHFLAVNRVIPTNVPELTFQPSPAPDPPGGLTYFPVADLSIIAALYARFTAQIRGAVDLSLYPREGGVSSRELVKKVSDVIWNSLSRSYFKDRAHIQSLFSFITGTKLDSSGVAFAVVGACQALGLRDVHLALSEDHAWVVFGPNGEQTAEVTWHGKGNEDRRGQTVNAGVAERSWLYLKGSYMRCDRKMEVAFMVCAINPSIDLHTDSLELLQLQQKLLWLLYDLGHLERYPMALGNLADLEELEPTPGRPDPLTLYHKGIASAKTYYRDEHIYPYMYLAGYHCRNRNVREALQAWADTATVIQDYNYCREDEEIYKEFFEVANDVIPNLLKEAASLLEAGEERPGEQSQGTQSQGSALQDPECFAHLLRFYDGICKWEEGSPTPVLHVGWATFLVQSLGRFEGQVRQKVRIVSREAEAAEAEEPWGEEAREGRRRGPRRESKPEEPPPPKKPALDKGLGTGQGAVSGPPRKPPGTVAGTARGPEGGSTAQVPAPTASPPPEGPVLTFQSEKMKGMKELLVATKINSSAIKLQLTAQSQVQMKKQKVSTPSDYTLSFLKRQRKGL
Experimental: A fluorescence polarization (FP) competitive binding assay was used to determine the binding affinities of representative menin inhibitors. A FAM labeled fluorescent probe was designed and synthesized based on a MLL1 peptide (FAM-MM2). Equilibrium dissociation constant (Kd) value of FAM-MM2 to menin protein was determined from protein saturation experiments by monitoring the total fluorescence polarization of mixtures composed with the fluorescent probe at a fixed concentration and the protein with increasing concentrations up to full saturation. Serial dilutions of the protein were mixed with FAM-MM2 to a final volume of 200 μl in the assay buffer (PBS with 0.02% Bovine γ-Globulin and 4% DMSO. 0.01% Triton X-100 was added right before assays). Final FAM-MM2 concentration was 2 nM. Plates were incubated at room temperature for 30 minutes with gentle shaking to assure equilibrium. FP values in millipolarization units (mP) were measured using the Infinite M-1000 plate reader (Tecan U.S., Research Triangle Park, N.C.) in Microfluor 1 96-well, black, v-bottom plates (Thermo Scientific, Waltham, Mass.) at an excitation wavelength of 485 nm and an emission wavelength of 530 nm.
The IC50 of representative Compounds of the Disclosure, see Table 3, were determined in a competitive binding experiment. Mixtures of 5 μl of the tested compounds in DMSO and 195 μl of preincubated protein/probe complex solution in the assay buffer were added into assay plates which were incubated at room temperature for 30 minutes with gentle shaking. Final concentration of the menin protein was 4 nM, and final probe concentration is 2 nM. Negative controls containing protein/probe complex only (equivalent to 0% inhibition), and positive controls containing only free probes (equivalent to 100% inhibition), were included in each assay plate. FP values were measured as described above. IC50 values were determined by nonlinear regression fitting of the competition curves.

[2] = test system: MV4-11; experiment: 7-day proliferation assay (WST-8), cell growth inhibition; format: cell-based; conditions: MV4-11 cells, 7 days
Experimental: The effect of representative Compounds of the Disclosure on cell viability was determined in a 7-day proliferation assay. Cells were maintained in the appropriate culture medium with 10% FBS at 37° C. and an atmosphere of 5% CO2.
Cells were seeded in 96-well flat bottom (Corning COSTAR, Corning, NY, cat#3595) at a density of 2,000-3,000 cells/well in 100 μl of culture medium. Compounds were serially diluted in the appropriate medium, and […] the diluted compounds were added to the appropriate wells of the cell plate. After the addition of compounds, the cells were incubated at 37° C. in an atmosphere of 5% CO2 for 7 days. Cell viability was determined using the WST (2-(2-methoxy-4-nitrophenyl)-3-(4-nitrophenyl)-5-(2,4-disulfophenyl)-2H-tetrazolium, monosodium salt) Cell Counting-8 Kit (Dojindo Molecular Technologies, Inc., Rockville, Md.) according to the manufacturers' instructions.
WST-8 reagent was added to each well at a final concentration of 10% (v/v), and then the plates were incubated at 37° C. for 1-2 hours for color development. The absorbance was measured at 450 nm using a SPECTRAmax PLUS plate reader (Molecular Devices, Sunnyvale, Calif.). The readings were normalized to the DMSO-treated cells and the half maximal inhibitory concentration (IC50) was calculated by nonlinear regression (four parameters sigmoid fitted with variable slope, least squares fit, and no constraint) analysis using the GraphPad Prism 5 software (GraphPad Software, La Jolla, Calif.).

| Structure (SMILES) | IC50 [1] [nM] | IC50 ([2]; Homo sapiens, MV4-11, 168 h) [nM] | IC50 [2] [nM] |
| --- | --- | --- | --- |
| COC(=O)N[C@H]1CCC[C@@H]1[C@](CN1CCC1)(c1cccc(F)c1)C1CCN(CC2CN(c3ccc(S(=O)(=O)C4CN(C(=O)/C=C/CN5CCC(F)CC5)C4)cc3)C2)CC1 [compound 100] | 4 | < 10 |  |
| COC(=O)N[C@H]1CCC[C@@H]1[C@](CN1CCC1)(c1cccc(F)c1)C1CCN(CC2CN(c3ccc(S(=O)(=O)C4CN(C(=O)/C=C/CN5CCC(F)(F)CC5)C4)cc3)C2)CC1 [compound 103] | 2 | < 10 |  |
| C=CC(=O)Nc1cncc(S(=O)(=O)c2ccc(N3CC(F)(CN4CCC([C@@](CN5CCC5)(c5cccc(F)c5)[C@H]5CCC[C@@H]5NC(=O)OC)CC4)C3)c(F)c2)c1 [compound 86] | 2 |  | < 50 |
| C=C(CN(CC)CC)C(=O)N1CC(S(=O)(=O)c2ccc(N3CC(CN4CCC([C@@](CN5CCC5)(c5cccc(F)c5)[C@H]5CCC[C@@H]5NC(=O)OC)CC4)C3)cc2)C1 [Cpd. No. 21, methyl ((1S,2R)-2-((S)-2-(azetidin-1-yl)-1-(1-((1-(4-((1-(2-((diethylamino)methyl)acryloyl)azetidin-3-yl)sulfonyl)phenyl)azetidin-3-yl)methyl)piperidin-4-yl)-1-(3-fluorophenyl)ethyl)cyclopentyl)carbamate] | 2 | < 10 |  |
| C=CC(=O)N1CC(S(=O)(=O)c2ccc(N3CC(CN4CCC([C@@](CN5CCC5)(c5cccc(F)c5)[C@H]5CCC[C@@H]5NC(=O)OC)CC4)C3)cc2)C1 [Cpd. No. 14, methyl ((1S,2R)-2-((S)-1-(1-((1-(4-((1-acryloylazetidin-3-yl)sulfonyl)phenyl)azetidin-3-yl)methyl)piperidin-4-yl)-2-(azetidin-1-yl)-1-(3-fluorophenyl)ethyl)cyclopentyl)carbamate] | 2 |  |  |
| C=C(CN1CCOCC1)C(=O)N1CC(S(=O)(=O)c2ccc(N3CC(CN4CCC([C@](CN5CCC5)(c5cccc(F)c5)[C@H]5CCC[C@@H]5NC(=O)OC)CC4)C3)cc2)C1 [Cpd. No. 27, methyl ((1S,2R)-2-((R)-2-(azetidin-1-yl)-1-(3-fluorophenyl)-1-(1-((1-(4-((1-(2-(morpholinomethyl)acryloyl)azetidin-3-yl)sulfonyl)phenyl)azetidin-3-yl)methyl)piperidin-4-yl)ethyl)cyclopentyl)carbamate] | 4 |  |  |
| C=CC(=O)N1CCN(C(=O)OC)CC(S(=O)(=O)c2ccc(N3CC(CN4CCC([C@@](CN5CCC5)(c5cccc(F)c5)[C@H]5CCC[C@@H]5NC(=O)OC)CC4)(OC)C3)cc2)C1 (some centres unmarked) [compound 242] | 10 |  |  |
| C=CC(=O)N1CC(S(=O)(=O)c2ccc(N3CC(CN4CCC([C@@](CN(C)C)(c5cccc(F)c5)[C@H]5CCC[C@@H]5NC(=O)OC)CC4)C3)cc2)C1 [Cpd. No. 1, methyl ((1S,2R)-2-((S)-1-(1-((1-(4-((1-acryloylazetidin-3-yl)sulfonyl)phenyl)azetidin-3-yl)methyl)piperidin-4-yl)-2-(dimethylamino)-1-(3-fluorophenyl)ethyl)cyclopentyl)carbamate] | 2 |  |  |
| COC(=O)N[C@H]1CCC[C@@H]1[C@](CN1CCCCC1)(c1cccc(F)c1)C1CCN(CC2CN(c3ccc(S(=O)(=O)C4CN(C(=O)/C=C/CN(C)C)C4)cc3)C2)CC1 [Cpd. No. 4, methyl ((1S,2R)-2-((S)-1-(1-((1-(4-((1-((E)-4-(dimethylamino)but-2-enoyl)azetidin-3-yl)sulfonyl)phenyl)azetidin-3-yl)methyl)piperidin-4-yl)-1-(3-fluorophenyl)-2-(piperidin-1-yl)ethyl)cyclopentyl)carbamate] | 2 |  |  |
| C=CC(=O)Nc1cccc(S(=O)(=O)c2ccc(N3CC(CN4CCC([C@@](CN5CCC5)(c5cccc(F)c5)[C@H]5CCC[C@@H]5NC(=O)OC)CC4)C3)cc2)c1 [Cpd. No. 32, methyl ((1S,2R)-2-((S)-1-(1-((1-(4-((3-acrylamidophenyl)sulfonyl)phenyl)azetidin-3-yl)methyl)piperidin-4-yl)-2-(azetidin-1-yl)-1-(3-fluorophenyl)ethyl)cyclopentyl)carbamate] | 2 |  |  |
| C=C(CN1CCCCC1)C(=O)N1CC(S(=O)(=O)c2ccc(N3CC(CN4CCC([C@@](C#N)(c5cccc(F)c5)[C@H]5CCC[C@@H]5NC(=O)OC)CC4)C3)cc2)C1 [Cpd. No. 29, methyl ((1S,2R)-2-((S)-cyano(3-fluorophenyl)(1-((1-(4-((1-(2-(piperidin-1-ylmethyl)acryloyl)azetidin-3-yl)sulfonyl)phenyl)azetidin-3-yl)methyl)piperidin-4-yl)methyl)cyclopentyl)carbamate] | 2 |  |  |
| C=CC(=O)N1CC2CC1CN2S(=O)(=O)c1ccc(N2CC(CN3CCC([C@@](CN4CCC4)(c4cccc(F)c4)[C@H]4CCC[C@@H]4NC(=O)OC)CC3)(OC)C2)cc1 (some centres unmarked) [compound 240] | 4 |  |  |
| COC(=O)N[C@H]1CCC[C@@H]1[C@](CN1CCOCC1)(c1cccc(F)c1)C1CCN(CC2CN(c3ccc(S(=O)(=O)C4CN(C(=O)/C=C/CN(C)C)C4)cc3)C2)CC1 [Cpd. No. 6, methyl ((1S,2R)-2-((S)-1-(1-((1-(4-((1-((E)-4-(dimethylamino)but-2-enoyl)azetidin-3-yl)sulfonyl)phenyl)azetidin-3-yl)methyl)piperidin-4-yl)-1-(3-fluorophenyl)-2-morpholinoethyl)cyclopentyl)carbamate] | 2 |  |  |
| C=CC(=O)N1CCCC[C@H](S(=O)(=O)c2ccc(N3CC(F)(CN4CCC([C@@](CN5CCC5)(c5cccc(F)c5)[C@H]5CCC[C@@H]5NC(=O)OC)CC4)C3)cc2)C1 [compound 236] | 4 |  |  |
| COC(=O)N[C@H]1CCC[C@@H]1[C@](CN1CCC1)(c1cc(F)cc(F)c1)C1CCN(CC2(F)CN(c3ccc(S(=O)(=O)C4CN(C(=O)/C=C/CN(C)C)C4)cc3)C2)CC1 [Cpd. No. 11, methyl ((1S,2R)-2-((S)-2-(azetidin-1-yl)-1-(3,5-difluorophenyl)-1-(1-((1-(4-((1-((E)-4-(dimethylamino)but-2-enoyl)azetidin-3-yl)sulfonyl)phenyl)-3-fluoroazetidin-3-yl)methyl)piperidin-4-yl)ethyl)cyclopentyl)carbamate] | 2 |  |  |
| C=C(CN1CCC(O)CC1)C(=O)N1CC(S(=O)(=O)c2ccc(N3CC(CN4CCC([C@@](CN5CCC5)(c5cccc(F)c5)[C@H]5CCC[C@@H]5NC(=O)OC)CC4)C3)cc2)C1 [Cpd. No. 23, methyl ((1S,2R)-2-((S)-2-(azetidin-1-yl)-1-(3-fluorophenyl)-1-(1-((1-(4-((1-(2-((4-hydroxypiperidin-1-yl)methyl)acryloyl)azetidin-3-yl)sulfonyl)phenyl)azetidin-3-yl)methyl)piperidin-4-yl)ethyl)cyclopentyl)carbamate] | 2 |  |  |
